Reference: patent US20250320224A1 (DOMAIN THERAPEUTICS, priority 2022, published 2025)
Counter-ions that a name gives are not always drawn.

Molecular target: T1, human PAR-2 (hPAR-2) receptor (Homo sapiens, UniProt P55085)
T1 construct: expressed in HEK-293 cells in an endogenous manner; endogenous in cells; host or cells: HEK-293
T1 sequence (P55085 26-397): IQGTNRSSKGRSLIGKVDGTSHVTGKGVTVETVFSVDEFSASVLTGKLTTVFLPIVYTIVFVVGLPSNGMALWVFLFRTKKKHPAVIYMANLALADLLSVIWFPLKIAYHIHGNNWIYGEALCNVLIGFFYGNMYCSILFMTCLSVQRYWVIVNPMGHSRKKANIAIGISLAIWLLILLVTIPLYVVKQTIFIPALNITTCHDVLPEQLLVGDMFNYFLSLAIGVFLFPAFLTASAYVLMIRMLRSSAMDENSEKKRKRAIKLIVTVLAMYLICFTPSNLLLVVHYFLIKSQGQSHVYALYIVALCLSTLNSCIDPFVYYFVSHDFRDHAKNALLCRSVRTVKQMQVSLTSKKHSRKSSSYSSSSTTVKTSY
Assay: In vitro human PAR-2 functional antagonist activity using calcium assays
Type: cell-based
Details: hPAR-2 endogenously expressed in HEK-293 cells; stimulated by 2-Furoyl-LIGRLO-NH2 peptide; Fluo4AM intracellular calcium, FLIPR Tetra
Experimental: Example 283: In Vitro Human PAR-2 Functional Antagonist Activity Using Calcium Assays
Examples of the present invention were tested successively for their agonist and antagonist activities on human PAR-2 (hPAR-2) receptor expressed in HEK-293 cells in an endogenous manner. Compounds exert agonist activity if, by themselves in absence of the 2-Furoyl-LIGRLO-NH2 peptide (selective hPAR-2 agonist), they activate PAR-2; they exert antagonist activity if they decrease the action of the 2-Furoyl-LIGRLO-NH2 peptide on the receptor. The assay used to determine compound activity is based on calcium measurement.
Cell Culture: HEK-293 cells were maintained in Dulbecco's Modified Eagle's Medium supplemented with 10% Foetal Calf Serum, 1% Penicillin/Streptomycin at 37° C./5% CO2. Flasks for tests (F75) are seeded with 6e+06 cells 24 h before the experiment at 37° C./5% CO2.
Calcium assay: Receptor activity was detected by changes in intracellular calcium measured using the fluorescent Ca^2+ sensitive dye, Fluo4AM (Molecular Probes).
The day of the assay, medium was replaced by assay buffer (HBSS 1× (Gibco 14175-053), Hepes 20 mM, MgSO4-7H2O 1 mM, Na2CO3 3.3 mM, CaCl2—2H2O 2.6 mM, 0.5% bovine serum albumin (BSA), Probenecid 2.5 mM, 0.1 mg/mL Pluronic Acid) and complemented with 1 μM Fluo4AM and cells were incubated during 1:30 h at 37° C.
Cells were then detached, resuspended in assay buffer and seeded in 384 wells, transparent-flat bottom black walled plates (2e+04 cells per well). Plates were incubated at +22° C. for 20 min. Compounds stock solutions were prepared in 100% DMSO and dilutions in test buffer were carried out in polypropylene plates with a digital dispenser (D300e, Tecan). Compounds were added to the cells and intracellular Ca^2+ measurements were collected at the same time on FLIPR Tetra® (Molecular Devices) with specific filters (Exc: 470-495 nm/Em: 515-575 nm).
Agonist and antagonist activities of compounds were consecutively evaluated on the same cell plate. Agonist activity was first measured after 10 min incubation with the compound alone. Then, cells were stimulated by an […] of the 2-Furoyl-LIGRLO-NH2 peptide and fluorescence was recorded for an additional 5 min. EC50 of the 2-Furoyl-LIGRLO-NH2 peptide was the concentration giving 80% of the maximal 2-Furoyl-LIGRLO-NH2 response. Agonist activities are evaluated in comparison to basal signals evoked by assay buffer or maximal 2-Furoyl-LIGRLO-NH2 response. […] Antagonist activities are evaluated in comparison to basal signals evoked by assay buffer or EC50 of 2-Furoyl-LIGRLO-NH2 alone.

IC50	Compound
< 500 nM	CC1(C)CN(c2ccc(Cl)c(F)c2)c2ccc(C(=O)N3CCNC(=O)C3(C)C)nc21 [Example 18, 4-(1-(4-chloro-3-fluorophenyl)-3,3-dimethyl-2,3-dihydro-1H-pyrrolo[3,2-b]pyridine-5-carbonyl)-3,3-dimethylpiperazin-2-one]
< 500 nM	CCN1CCN(C(=O)c2ccc3c(n2)C(C)(C)CN3c2ccc(Cl)c(F)c2)C(C)(C)C1=O [Example 19, 4-(1-(4-chloro-3-fluorophenyl)-3,3-dimethyl-2,3-dihydro-1H-pyrrolo[3,2-b]pyridine-5-carbonyl)-1-ethyl-3,3-dimethylpiperazin-2-one]
< 500 nM	CC1(C)CN(c2ccc(Cl)c(F)c2)c2ccc(C(=O)N3CCOCC3(C)C)nc21 [Example 20, (1-(4-chloro-3-fluorophenyl)-3,3-dimethyl-2,3-dihydro-1H-pyrrolo[3,2-b]pyridin-5-yl)(3,3-dimethylmorpholino)methanone]
< 500 nM	CC(C)(C)OC(=O)N1CCN(C(=O)c2ccc3c(n2)C(C)(C)CN3c2ccc(Cl)c(F)c2)C(C)(C)C1 [Example 21, tert-butyl 4-(1-(4-chloro-3-fluorophenyl)-3,3-dimethyl-2,3-dihydro-1H-pyrrolo[3,2-b]pyridine-5-carbonyl)-3,3-dimethylpiperazine-1-carboxylate]
500 to 10000 nM	CC1(C)CN(c2ccc(Cl)c(F)c2)c2ccc(C(=O)N3CCNCC3(C)C)nc21 [Example 22, (1-(4-chloro-3-fluorophenyl)-3,3-dimethyl-2,3-dihydro-1H-pyrrolo[3,2-b]pyridin-5-yl)(2,2-dimethylpiperazin-1-yl)methanone hydrochloride]
500 to 10000 nM	CCN1CCN(C(=O)c2ccc3c(n2)C(C)(C)CN3c2ccc(Cl)c(F)c2)C(C)(C)C1 [Example 23, (1-(4-chloro-3-fluorophenyl)-3,3-dimethyl-2,3-dihydro-1H-pyrrolo[3,2-b]pyridin-5-yl)(4-ethyl-2,2-dimethylpiperazin-1-yl)methanone hydrochloride]
500 to 10000 nM	CC(=O)N1CCN(C(=O)c2ccc3c(n2)C(C)(C)CN3c2ccc(Cl)c(F)c2)C(C)(C)C1 [Example 24, 1-(4-(1-(4-chloro-3-fluorophenyl)-3,3-dimethyl-2,3-dihydro-1H-pyrrolo[3,2-b]pyridine-5-carbonyl)-3,3-dimethylpiperazin-1-yl)ethan-1-one]
500 to 10000 nM	CC1(C)CN(c2ccc(Cl)c(F)c2)c2ccc(C(=O)N3CCN(C(=O)CCC(=O)O)CC3(C)C)nc21 [Example 26, 4-(4-(1-(4-chloro-3-fluorophenyl)-3,3-dimethyl-2,3-dihydro-1H-pyrrolo[3,2-b]pyridine-5-carbonyl)-3,3-dimethylpiperazin-1-yl)-4-oxobutanoic acid]
< 500 nM	CCOC(=O)CCCC(=O)N1CCN(C(=O)c2ccc3c(n2)C(C)(C)CN3c2ccc(Cl)c(F)c2)C(C)(C)C1 [Example 27, ethyl 5-(4-(1-(4-chloro-3-fluorophenyl)-3,3-dimethyl-2,3-dihydro-1H-pyrrolo[3,2-b]pyridine-5-carbonyl)-3,3-dimethylpiperazin-1-yl)-5-oxopentanoate]
500 to 10000 nM	CC1(C)CN(c2ccc(Cl)c(F)c2)c2ccc(C(=O)N3CCN(C(=O)CCCC(=O)O)CC3(C)C)nc21 [Example 28, 5-(4-(1-(4-chloro-3-fluorophenyl)-3,3-dimethyl-2,3-dihydro-1H-pyrrolo[3,2-b]pyridine-5-carbonyl)-3,3-dimethylpiperazin-1-yl)-5-oxopentanoic acid]
500 to 10000 nM	CN1CNC(=O)C12CCN(C(=O)c1ccc3c(n1)C(C)(C)CN3c1ccc(Cl)c(F)c1)CC2 [Example 29, 8-(1-(4-chloro-3-fluorophenyl)-3,3-dimethyl-2,3-dihydro-1H-pyrrolo[3,2-b]pyridine-5-carbonyl)-1-methyl-1,3,8-triazaspiro[4.5]decan-4-one]
< 500 nM	CC1(C)CN(c2ccc(Cl)c(F)c2)c2ccc(C(=O)N3C[C@@H]4[C@@H](CC(=O)O)[C@@H]4C3)nc21 [Example 31, 2-((1R,5S,6S)-3-(1-(4-chloro-3-fluorophenyl)-3,3-dimethyl-2,3-dihydro-1H-pyrrolo[3,2-b]pyridine-5-carbonyl)-3-azabicyclo[3.1.0]hexan-6-yl)acetic acid]
500 to 10000 nM	CC1(C)CN(c2ccc(Cl)c(F)c2)c2ccc(C(=O)N3CCC(C(=O)O)CC3)nc21 [Example 33, 1-(1-(4-chloro-3-fluorophenyl)-3,3-dimethyl-2,3-dihydro-1H-pyrrolo[3,2-b]pyridine-5-carbonyl)piperidine-4-carboxylic acid]
500 to 10000 nM	CC1(C)CN(c2ccc(Cl)c(F)c2)c2ccc(C(=O)N3CCC(CC(=O)O)CC3)nc21 [Example 35, 2-(1-(1-(4-chloro-3-fluorophenyl)-3,3-dimethyl-2,3-dihydro-1H-pyrrolo[3,2-b]pyridine-5-carbonyl)piperidin-4-yl)acetic acid]
500 to 10000 nM	CO[C@H]1CN(C(=O)c2ccc3c(n2)C(C)(C)CN3c2ccc(Cl)c(F)c2)CC[C@H]1CC(=O)O [Example 37, 2-((3R,4S)-1-(1-(4-chloro-3-fluorophenyl)-3,3-dimethyl-2,3-dihydro-1H-pyrrolo[3,2-b]pyridine-5-carbonyl)-3-methoxypiperidin-4-yl)acetic acid]
< 500 nM	Cc1nc(N2CCN(C(=O)c3ccc4c(n3)C(C)(C)CN4c3ccc(Cl)c(F)c3)C(C)(C)C2)ncc1C(=O)O [Example 39, 2-(4-(1-(4-chloro-3-fluorophenyl)-3,3-dimethyl-2,3-dihydro-1H-pyrrolo[3,2-b]pyridine-5-carbonyl)-3,3-dimethylpiperazin-1-yl)-4-methylpyrimidine-5-carboxylic acid hydrochloride]
< 500 nM	CC1(C)CN(c2ccc(Cl)c(F)c2)c2ccc(C(=O)N3CCN(c4ncc(C(=O)O)cn4)CC3(C)C)nc21 [Example 41, 2-(4-(1-(4-chloro-3-fluorophenyl)-3,3-dimethyl-2,3-dihydro-1H-pyrrolo[3,2-b]pyridine-5-carbonyl)-3,3-dimethylpiperazin-1-yl)-pyrimidine-5-carboxylic acid hydrochloride]
< 500 nM	CC1(C)CN(c2ccc(Cl)c(F)c2)c2ccc(C(=O)N3CCN(c4nc(C(=O)O)cs4)CC3(C)C)nc21 [Example 43, 2-(4-(1-(4-chloro-3-fluorophenyl)-3,3-dimethyl-2,3-dihydro-1H-pyrrolo[3,2-b]pyridine-5-carbonyl)-3,3-dimethylpiperazin-1-yl)thiazole-4-carboxylic acid]
< 500 nM	Cc1cc(N2CCN(C(=O)c3ccc4c(n3)C(C)(C)CN4c3ccc(Cl)c(F)c3)C(C)(C)C2)nc(C)c1C(=O)O [Example 45, 6-(4-(1-(4-chloro-3-fluorophenyl)-3,3-dimethyl-2,3-dihydro-1H-pyrrolo[3,2-b]pyridine-5-carbonyl)-3,3-dimethylpiperazin-1-yl)-2,4-dimethylnicotinic acid]
500 to 10000 nM	C[C@H](CC(=O)O)N(C)C(=O)c1ccc2c(n1)C(C)(C)CN2c1ccc(Cl)c(F)c1 [Example 47, (R)-3-(1-(4-chloro-3-fluorophenyl)-N,3,3-trimethyl-2,3-dihydro-1H-pyrrolo[3,2-b]pyridine-5-carboxamido)butanoic acid]
500 to 10000 nM	CN(C(=O)c1ccc2c(n1)C(C)(C)CN2c1ccc(Cl)c(F)c1)C1(C(N)=O)CC1 [Example 48, N-(1-carbamoylcyclopropyl)-1-(4-chloro-3-fluorophenyl)-N,3,3-trimethyl-2,3-dihydro-1H-pyrrolo[3,2-b]pyridine-5-carboxamide]
500 to 10000 nM	Cc1cc(N(C)CCN(C)C(=O)c2ccc3c(n2)C(C)(C)CN3c2ccc(Cl)c(F)c2)nc(C)c1C(=O)O [Example 50, 6-((2-(1-(4-chloro-3-fluorophenyl)-N,3,3-trimethyl-2,3-dihydro-1H-pyrrolo[3,2-b]pyridine-5-carboxamido)ethyl)(methyl)amino)-2,4-dimethylnicotinic acid]
